Experimental data from patent publication US20040191843A1, “Cell-killing molecules and methods of use thereof” (Palo Alto Institute of Molecular Medicine, priority 2003, published 2004).
Entries after “also recorded” stand apart in the source; their conditions may differ. Like-named read-outs stand apart in the source and are kept apart here. Values belong to the molecule of their own block, whether it stands above or below them.

How the values were obtained:
SK Hep-1 = assay: 48 h MTT dye reduction assay; assay type: cell-based; conditions: Homo sapiens, SK-HEP1, read-out: IC50 Values ± SEM (n)
From the text: (§1) The cytotoxic activity of rADF-Ant was compared to several chemotherapeutic drugs on a panel of three HCC cell lines.

Hep3B = assay: 48 h MTT dye reduction assay; assay type: cell-based; conditions: Homo sapiens
From the text: as §1
(§2) Without limiting the invention to any particular mechanism, another possible mechanism of resistance is expression of the multidrug resistance associated protein (MRP). This protein is thought to exert a function similar to the p-glycoprotein, and is expressed at high levels in the HepG2 and SK Hep-1 cell lines (Takeuchi, et al., 1999, J Gastroenterol 34:351-358). Increased expression of thioredoxin, which functions as a cellular defense mechanism against oxidative stress, may also protect HCC's from some chemotherapeutic agents (Kawahara, et al., 1996, Cancer Res 56:5330-5333). Expression of different xenobiotic enzymes (e.g. cytochrome P-450 and glutathione S-transferase) may also contribute to the intrinsic drug resistance of HCC (Murray, et al., 1993, Cancer 71:36-43). Additional studies explored whether the high intrinsic levels of drug resistance in the HCC lines can be even further augmented by adherence to ECM protein. Overexpression of b1 integrin and its role in the progression of HCC has been reported (Patriarca, et al., 1993, J Pathol 171:5-11). Overexpression of b1-integrin in several HCC lines (including HepG2) protected them from chemotherapeutic drug-induced apoptosis via a MAP kinase-dependent pathway (Zhang, et al., 2002, Cancer 95:896-906). Knockout of a6b1-integrin expression reversed the transformed phenotype of HepG2 cells (Carloni et al., 1998, Gastroenterology. 115:433-442). […] These properties of HCCs may contribute to the marked changes in amount and distribution of ECM components found in the stroma of HCC as compared to normal liver (Jaskiewicz, et al., 1993, Anticancer Res 13:2229-2238). Thus, the combination of increased expression of integrins in HCCs as well as abnormalities in the surrounding ECM may create an environment that both promotes tumor growth and inhibits apoptosis. Therefore, the inventors tested HepG2 and Hep3B for drug sensitivity when assayed on plates coated with BSA as a control, or on FN as described above for U937 cells.

HepG2 = assay: 48 h MTT dye reduction assay; assay type: cell-based; conditions: Homo sapiens
From the text: as §1, §2

HL-60 Bcl-2 = assay: DNA fragmentation in whole cells (release of 3H-labeled DNA fragments, 4 h); assay type: cell-based; conditions: Homo sapiens
MES-SA/Dx5 (MDR1 high) = assay: cells; conditions: 48 h, read-out: IC50 Values
From the text: (§3) One of the most frequently reported alterations associated with multidrug resistance is increased expression of the 170 kDa membrane protein called P-glycoprotein encoded by the MDR1 gene. It functions as an energy-dependent drug efflux pump that reduces intracellular drug accumulation, thereby causing resistance to many structurally unrelated drugs (Roninson, et al., 1986, Proc Natl Acad Sci 83:4538-4542). To determine if MDR1 overexpressing cells were sensitive to rADF, the inventors tested the parental drug-sensitive uterine sarcoma, MES-SA, compared to a variant selected by culturing in doxorubicin, MES-SA/Dx5, described previously (Chen et al., 1997).

U9-TR = assay: DNA fragmentation in whole cells (release of 3H-labeled DNA fragments, 4 h); assay type: cell-based, human; conditions: Homo sapiens; U9-TR; 4 hr; read-out: IC50 Value (minimal concentration to cause 50% DNA fragmentation)
Protocol: (§4) DNA fragmentation in whole cells or normal nuclei isolated from U937 or MCF-7 cells was assayed by release of (3H)thymidine-labeled DNA fragments as described in detail previously (Wright et al. (1994) J. Exp. Med. 180, 2113-2123). DNA fragmentation induced by rADF treatment of isolated nuclei for four h was analyzed by agarose electrophoresis as described in detail previously (Wright et al. (1994) supra). In four h assays using isolated nuclei, the buffer was supplemented with an ATP regenerating system (2 mM ATP, 10 mM phosphocreatine, and 50 μg/ml creatine kinase).
(§5) Another mechanism whereby cancer cells may resist apoptosis is through overexpression of heat shock (HS) proteins which have been found at high levels in most tumor cell biopsies (Jaattela, et al., 1999, Exp Cell Res 248:30-43). […] We have studied the mechanisms of apoptosis resistance using several variants derived from the U937 cell line. Variants generated by prolonged growth in the presence of TNF (U9-TR) or by nutritional depletion of intracellular NAD content (U9-NAD-) have been described in the literature previously (Wright, et al., 1992, Cancer Immunol Immunother 34:399-406; Wright, et al., 1996b, J. Exp. Med. 183: 463-477). Both of these variants were resistant to apoptosis induced by diverse agents, such as chemotherapeutic drugs, UV light, and TNF.

U937 cells [1] = assay: as above; assay type: cell-based, human; conditions: for IC50: Homo sapiens, U-937, 4 h
Protocol: as §4

MES-SA (parental) = assay: 48 h MTT dye reduction assay; assay type: cell-based; conditions: Homo sapiens
From the text: as §3

U9-NAD - = assay: DNA fragmentation in whole cells (release of 3H-labeled DNA fragments, 4 h); assay type: cell-based; conditions: Homo sapiens, read-out: IC50 Value (minimal concentration to cause 50% DNA fragmentation)
Protocol: as §4, §5

HL-60 neo = assay: as above; assay type: cell-based; conditions: Homo sapiens
U937 cells [2] = assay: Viability by trypan blue exclusion after 4 h treatment; assay type: cell-based, human; conditions: for IC50: Homo sapiens, U-937, trypan blue, 4 h
isolated U937 nuclei = assay: DNA fragmentation in isolated nuclei (release of 3H-labeled DNA fragments; agarose gel); assay type: biochemical, human
Protocol: as §4
ADF was purified from 2.9 mg of pig heart mitochondrial MDH obtained from Worthington Enzymes, New Jersey. Protein was fractionated by gel filtration on a Tosohaas G2000SWXL 7.8 mm×300 mm HPLC column, and each fraction tested for DNA fragmentation in isolated U937 nuclei (ADF activity) and for MDH enzyme activity. Active fractions were pooled and applied to a reverse phase C4 Brownlee 2.1 mm×220 mm column equilibrated in H2O+0.0075% trifluoroacetic acid pH 6.5, and eluted with a linear gradient to 40% acetonitrile.
In preliminary studies, the inventors observed that supernatants of normal mitochondria derived from cultured cells or freshly isolated liver cells incubated in vitro contained activity that induced internucleosomal DNA cleavage in isolated U937 nuclei. […] To ascertain that the DNA fragmenting activity of MDH was not due to a contaminating nuclease, the inventors purified the commercial enzyme to determine the source of the ADF activity.
Therefore, it is likely that ADF directly or indirectly activates endonucleases present in isolated nuclei.

ICAD/DFF45 = assay: Western blot for ICAD cleavage in rADF-treated nuclei; assay type: biochemical, human; conditions: U937 nuclei treated with rADF
naked DNA = assay: DNase assay on naked DNA substrate (rADF alone or extracts of rADF-treated U937 nuclei); assay type: biochemical, human
isolated MCF-7 nuclei = assay: DNA fragmentation in isolated nuclei (release of 3H-labeled DNA fragments); assay type: biochemical, human; conditions: nuclei from MCF-7 cells (no caspase 3); four h assay
[3] = Hep3B (BSA) plate coating, read-out: IC50 Values
[4] = Hep3B (FN) plate coating, read-out: IC50 Values
[5] = read-out: IC50 Values ± SEM (n)
[6] = HepG2, 48 h, HepG2 (BSA) plate coating, read-out: IC50 Values
[7] = HepG2, 48 h, HepG2 (FN) plate coating, read-out: IC50 Values
[8] = HepG2, 48 h, HepG2, read-out: IC50 Values ± SEM (n)

- IC50 (Hep3B; [3]): 490 µM
- IC50 (Hep3B; [4]): > 2 µM
- IC50 (Hep3B; [5]): 410 µM
- IC50 (HepG2; [6]): 515 µM
- IC50 (HepG2; [7]): > 2 µM
- IC50 (HepG2; [8]): 620 µM
Molecule: O=c1[nH]cc(F)c(=O)[nH]1 [5-FU, 5-fluorouracil]
- IC50 (SK Hep-1): 203 µM

- IC50 (Hep3B; [3]): 86 µM
- IC50 (Hep3B; [4]): > 400 µM
- IC50 (Hep3B; [5]): 80 µM
- IC50 (HepG2; [6]): 104 µM
- IC50 (HepG2; [7]): > 400 µM
- IC50 (HepG2; [8]): 122 µM
Molecule: COc1cccc2c1C(=O)c1c(O)c3c(c(O)c1C2=O)C[C@@](O)(C(=O)CO)C[C@@H]3O[C@H]1C[C@H](N)[C@H](O)[C@H](C)O1 [Dox, doxorubicin]
- IC50 (SK Hep-1): 73 µM

Molecule: COc1cc([C@@H]2c3cc4c(cc3[C@@H](O[C@@H]3O[C@@H]5CO[C@@H](C)O[C@H]5[C@H](O)[C@H]3O)[C@H]3COC(=O)[C@H]23)OCO4)cc(OC)c1O [Etoposide, etoposide]
- IC50 (HL-60 Bcl-2): 380 µM
- IC50 (MES-SA/Dx5 (MDR1 high)): > 500 µM
- IC50 (SK Hep-1): 58 µM
- IC50 (U9-TR): > 500 µM
- IC50 (Hep3B; [3]): 210 µM
- IC50 (Hep3B; [4]): 840 µM
- IC50 (Hep3B; [5]): 95 µM
- IC50 (HepG2; HepG2 (BSA) plate coating, read-out: IC50 Values): 35 µM
- IC50 (HepG2; HepG2, read-out: IC50 Values ± SEM (n)): 231 µM
- IC50 (U937 cells [1]; U937, 4 hr, read-out: IC50 Value (minimal concentration to cause 50% DNA fragmentation)): 12 µM
- IC50 (U937 cells [1]; U937 on BSA, 4 h DNA fragmentation, read-out: IC50 Values): 4 µM
- IC50 (U937 cells [1]; U937 on FN, 4 h DNA fragmentation, read-out: IC50 Values): 15 µM
- fold higher concentration to induce 50% DNA fragmentation (U937 cells [1]; cells adhering to FN vs plated on BSA): about 5 fold
- IC50 (MES-SA (parental)): 59 µM
- IC50 (U9-NAD -): > 500 µM
- IC50 (HL-60 neo): 26 µM
- IC50 (U937 cells [2]; U937 + PMA (10 nM, 3 days)): 510 µM
- IC50 (U937 cells [2]; U937): 4 µM
- factor of resistance of PMA-treated cells (U937 cells [2]; PMA-treated vs normal U937): 127 fold

B1: MDH derived from porcine heart mitochondria: commercial preparation of mitochondrial malate dehydrogenase (Worthington Enzymes) (protein, UniProt P00346 25-338, looked up)
Malate dehydrogenase, …: AKVAVLGASGGIGQPLSLLLKNSPLVSRLTLYDIAHTPGVAADLSHIETRATVKGYLGPEQLPDCLKGCDVVVIPAGVPRKPGMTRDDLFNTNATIVATLTAACAQHCPDAMICIISNPVNSTIPITAEVFKKHGVYNPNKIFGVTTLDIVRANAFVAELKGLDPARVSVPVIGGHAGKTIIPLISQCTPKVDFPQDQLSTLTGRIQEAGTEVVKAKAGAGSATLSMAYAGARFVFSLVDAMNGKEGVVECSFVKSQETDCPYFSTPLLLGKKGIEKNLGIGKISPFEEKMIAEAIPELKASIKKGEEFVKNMK
- concentrations dose-dependently inducing nuclear DNA fragmentation (isolated U937 nuclei; isolated nuclei): 2 to 10 µg/mL

B2: rADF: recombinant human activator of DNA fragmentation, 9 kDa C-terminal fragment of mitochondrial MDH, SEQ ID NO:7 (protein, listed as Homo sapiens)
chain: KAKAGAGSATLSMAYAGARFVFSLVDAMNGKEGVVECSFVKSQETECTYFSTPLLLGKKGIEKNLGIGKVSSFEEKMISDAIPELKASIKKGEDFVKTLK
- ICAD/DFF45 cleavage (ICAD/DFF45): not cleaved
- DNase activity on naked DNA of extracts from treated nuclei (naked DNA; U937 nuclei incubated with rADF 20 h): digested naked DNA
- digestion of naked DNA by rADF itself (naked DNA; rADF without nuclei): did not digest naked DNA; also recorded: little or no activity
- activation of nuclear DNA fragmentation (isolated MCF-7 nuclei): dose-dependent activation
- DNA fragmentation activity at the same concentrations (U937 cells [1]; 2.25-9 nM, 4 h assay): little activity
- internucleosomal DNA fragmentation (isolated U937 nuclei; agarose gel, 4 h): induced internucleosomal DNA fragmentation
- activation of nuclear DNA fragmentation (isolated U937 nuclei; nuclei from U937 cells, four h assay): dose-dependent activation
